Laboratory results reported in patent publication US5045567A, “Propanolamine derivatives having anti-diabetic effects” (Hoffmann-La Roche Inc., priority 1989, dated 1991).
Where a name gives a salt, the structure may show the parent alone. Read-outs that look alike come from different tables or passages of the source.

What was measured:
[1] = Activity on oxygen consumption (male albino rats in metabolic cages, per os); type: in vivo; details: po; for response vs control in vivo at 3 µM, 3 µmol/kg: dosage 3 μM/kg
Method: (1) -Activity on oxygen consumption
Male albino rats weighing 160-180 g were placed in metabolic cages after fasting for 24 hours. The cages were ventilated with a constant 6 liter room air/minute which was equilibrated at a dew point of 11° C. Samples of the spent air were collected during periods of in each case 14 minutes after again equilibrating and the oxygen content and CO2 content were analyzed. After an adaptation time of 4 hours the animals, divided into groups of 6, received either placebo (5% gum arabic) or the test substance (suspended in 5% gum arabic) per os. Thereafter, the determinations were carried out for a period of 12 hours. In Table I the average oxygen consumption after medication during the first 3 hours and the entire test duration (12 hours) is given as percentage of the oxygen consumption during the adaptation period. Corresponding corrections for changes in the placebo group have been taken into consideration.

[2] = Activity on heart rate (male albino rats, electrocardiogram, per os); type: in vivo; details: rat; for Heart rate (% of controls), 1 hour: 1 hour after treatment; for Heart rate (% of controls), 3 hours: 3 hours after treatment
Method: (2) Activity on heart rate
Male albino rats weighing 250-320 g received 6 hours after withdrawl of food either placebo (5% gum arabic) or the test substance (suspended in 5% gum arabic) per os. The animals were subsequently immobilized in perforated plastic tubes. The electrocardiogram was derived by means of bipolar subcutaneous needle electrodes. The R-peak was used to trigger a beat counter. The heart rate measured 1 and 3 hours after treatment was given in Table II as a percentage of the control value (placebo).

[3] = 3 h, rat, per os, 1st-3rd hour, corrected for changes in placebo group, read-out: O2 consumption, % of the value of the pre-period, 1st-3rd hour
[4] = 12 h, rat, per os, 1st-12th hour, corrected for changes in placebo group, read-out: O2 consumption, % of the value of the pre-period, 1st-12th hour
[5] = 3 h, rat, per os, dosage 10 μM/kg, 1st-3rd hour, corrected for changes in placebo group, read-out: O2 consumption, % of the value of the pre-period, 1st-3rd hour
[6] = 12 h, rat, per os, dosage 10 μM/kg, 1st-12th hour, corrected for changes in placebo group, read-out: O2 consumption, % of the value of the pre-period, 1st-12th hour

Compound | response vs control in vivo at 3 µM, 3 µmol/kg [1, 3] [%] | response vs control in vivo at 3 µM, 3 µmol/kg [1, 4] [%] | Heart rate (% of controls), 1 hour ([2]; dosage 10 mg/kg) | Heart rate (% of controls), 3 hours ([2]; dosage 10 mg/kg) | Heart rate (% of controls), 1 hour ([2]; dosage 30 mg/kg) | Heart rate (% of controls), 3 hours ([2]; dosage 30 mg/kg) | response vs control in vivo at 10 µM, 10 µmol/kg ([1]; Rattus norvegicus, 3 h, read-out: O2 consumption, % of the value of the pre-period, 1st-3rd hour) [%] | response vs control in vivo at 10 µM, 10 µmol/kg ([1]; Rattus norvegicus, 12 h, read-out: O2 consumption, % of the value of the pre-period, 1st-12th hour) [%] | Heart rate (% of controls), 1 hour ([2]; dosage 100 mg/kg) | Heart rate (% of controls), 3 hours ([2]; dosage 100 mg/kg) | response vs control in vivo at 10 µM, 10 µmol/kg [1, 5] [%] | response vs control in vivo at 10 µM, 10 µmol/kg [1, 6] [%]
CCOCCOc1ccc(CCN(CC(CO)c2ccccc2)CC(CO)c2ccccc2)cc1 (racemic) [Example 2c] | 132 | 108 | 103 % of controls | 102 % of controls | 111 % of controls | 104 % of controls | – | – | – | – | – | –
CCOCCOc1ccc(C[C@@H](C)NCC(CO)c2ccccc2)cc1.O=C(O)C(=O)O (stereo partly drawn) [Example 2a, β-[[[(R)-p-(2-ethoxyethoxy)-α-methylphenethyl]amino]-methyl]-phenethyl alcohol oxalate] | – | – | – | – | 105 % of controls | 100 % of controls | 149 | 113 | 121 % of controls | 112 % of controls | – | –
OCC(CNCCc1ccc(OCCOCCc2ccccc2)cc1)c1ccccc1 (stereo not drawn) [Example 2j, β-[[[p-(2-phenethoxy)ethoxy]phenethyl]amino]methyl]phenethyl alcohol oxalate] | – | – | – | – | – | – | – | – | 110 % of controls | – | 137 | 113
CCOCCOc1ccc(CCN(CC(CO)c2cccc(Cl)c2)C[C@H](O)c2ccccc2)cc1 (stereo partly shown) [Example 2d, oxalate] | 152 | 127 | 103 % of controls | 100 % of controls | 111 % of controls | 104 % of controls | – | – | – | – | – | –
CCOCCOc1ccc(CCNCC(CO)c2cccc(Cl)c2)cc1.O=C(O)C(=O)O (stereo not drawn) [Example 2b, m-chloro-β-[[[p-(2-ethoxyethoxy)phenethyl]amino]methyl]phenethyl alcohol oxalate] | 124 | 107 | – | – | 106 % of controls | 99 % of controls | – | – | 114 % of controls | 105 % of controls | – | –
CCOCCOc1ccc(CCNCC(CO)c2ccccc2)cc1.O=C(O)C(=O)O (single isomer, unassigned) [Example 3a, (R or S)-β-[[[p-(2-ethoxyethoxy)phenethyl]amino]methyl]-phenethyl alcohol oxalate] | 152 | 112 | 108 % of controls | – | 115 % of controls | – | – | – | – | – | – | –
CCOC(=O)COc1ccc(CCNCC(CO)c2ccccc2)cc1 (stereo not drawn) [Example 4, ethyl [p-[2-[[β-(hydroxymethyl)phenethyl]-amino]ethyl]phenoxy]acetate hydrochloride] | 145 | 112 | – | – | – | – | – | – | – | – | – | –
CCOCCOc1ccc(CCNCC(CO)c2cccs2)cc1.O=C(O)C(=O)O (stereo not drawn) [Example 2o, β-[[[p-(2-ethoxyethoxy)phenethyl]amino]methyl]-2-thiophene-ethanol oxalate] | – | – | – | – | 108 % of controls | – | – | – | 111 % of controls | – | 147 | 115
